In ChEMBL document CHEMBL1201862, “PubChem BioAssay data set” (2004):
Calls of active or inactive are those of the source.

Experiments:
BJ [1] = experiment: BJ-TERT fibroblast viability loss – cell-based, RAS-independent, luminescence, dose response (AID 1933); assay type: functional; details: Homo sapiens
BJ [2] = experiment: growth inhibition of engineered Ras-driven BJ cells – cell-based, alamar blue fluorescence, cherrypicked samples, dose response (AID 2631); assay type: functional; details: Homo sapiens;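 further: confirmatory dose-response assay in RAS-dependent BJ fibroblasts engineered with TERT, LT and ST, with cytotoxicity read by fluorescence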
[3] = DRD fibroblast viability loss – cell-based, non-viral oncogenic, luminescence, dose response (AID 1934); assay type: functional; details: Homo sapiens
BJ [4] = experiment: cells; assay type: functional, cell-based; details: Homo sapiens
BJ [5] = experiment: BJ-TERT-LT-ST fibroblast viability loss – cell-based, RAS-independent, luminescence, dose response (AID 1935); assay type: functional; details: Homo sapiens;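 further: BJ fibroblasts immortalized with TERT plus LT and ST oncogenes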
[6] = target: T1, Sentrin-specific protease 8 (Homo sapiens, UniProt Q96LD8); assay type: functional;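 further: luminescence read-out of SENP8 inhibition, dose-response confirmation following an ultra-high-throughput screen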
T1 sequence (Q96LD8 whole entry): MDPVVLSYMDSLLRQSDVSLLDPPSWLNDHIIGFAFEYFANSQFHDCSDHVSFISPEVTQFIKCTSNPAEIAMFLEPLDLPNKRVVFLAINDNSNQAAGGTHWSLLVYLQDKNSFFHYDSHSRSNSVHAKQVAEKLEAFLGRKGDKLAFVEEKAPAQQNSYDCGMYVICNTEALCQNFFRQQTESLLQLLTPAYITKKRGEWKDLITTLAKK

Caspase-3 = target: T2, Caspase-3 (Homo sapiens, UniProt P42574); assay type: functional;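 further: Dose-response selectivity test against caspase-3 for candidate inhibitors of sentrin-specific proteases (SENPs)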
T2 sequence (P42574 whole entry): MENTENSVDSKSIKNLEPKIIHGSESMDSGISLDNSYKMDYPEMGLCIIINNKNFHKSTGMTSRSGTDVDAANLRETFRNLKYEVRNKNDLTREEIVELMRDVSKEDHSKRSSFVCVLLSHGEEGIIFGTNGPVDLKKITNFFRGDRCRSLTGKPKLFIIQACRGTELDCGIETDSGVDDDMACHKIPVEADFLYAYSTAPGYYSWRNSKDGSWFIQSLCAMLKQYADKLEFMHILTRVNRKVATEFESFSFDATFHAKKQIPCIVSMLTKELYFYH

[7] = target: T3, Sentrin-specific protease 7 (Homo sapiens, UniProt Q9BQF6); assay type: functional;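 further: Luminescence-based dose-response confirmation of ultra-high-throughput screening hits, measuring inhibition of SENP7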
T3 sequence (Q9BQF6 whole entry): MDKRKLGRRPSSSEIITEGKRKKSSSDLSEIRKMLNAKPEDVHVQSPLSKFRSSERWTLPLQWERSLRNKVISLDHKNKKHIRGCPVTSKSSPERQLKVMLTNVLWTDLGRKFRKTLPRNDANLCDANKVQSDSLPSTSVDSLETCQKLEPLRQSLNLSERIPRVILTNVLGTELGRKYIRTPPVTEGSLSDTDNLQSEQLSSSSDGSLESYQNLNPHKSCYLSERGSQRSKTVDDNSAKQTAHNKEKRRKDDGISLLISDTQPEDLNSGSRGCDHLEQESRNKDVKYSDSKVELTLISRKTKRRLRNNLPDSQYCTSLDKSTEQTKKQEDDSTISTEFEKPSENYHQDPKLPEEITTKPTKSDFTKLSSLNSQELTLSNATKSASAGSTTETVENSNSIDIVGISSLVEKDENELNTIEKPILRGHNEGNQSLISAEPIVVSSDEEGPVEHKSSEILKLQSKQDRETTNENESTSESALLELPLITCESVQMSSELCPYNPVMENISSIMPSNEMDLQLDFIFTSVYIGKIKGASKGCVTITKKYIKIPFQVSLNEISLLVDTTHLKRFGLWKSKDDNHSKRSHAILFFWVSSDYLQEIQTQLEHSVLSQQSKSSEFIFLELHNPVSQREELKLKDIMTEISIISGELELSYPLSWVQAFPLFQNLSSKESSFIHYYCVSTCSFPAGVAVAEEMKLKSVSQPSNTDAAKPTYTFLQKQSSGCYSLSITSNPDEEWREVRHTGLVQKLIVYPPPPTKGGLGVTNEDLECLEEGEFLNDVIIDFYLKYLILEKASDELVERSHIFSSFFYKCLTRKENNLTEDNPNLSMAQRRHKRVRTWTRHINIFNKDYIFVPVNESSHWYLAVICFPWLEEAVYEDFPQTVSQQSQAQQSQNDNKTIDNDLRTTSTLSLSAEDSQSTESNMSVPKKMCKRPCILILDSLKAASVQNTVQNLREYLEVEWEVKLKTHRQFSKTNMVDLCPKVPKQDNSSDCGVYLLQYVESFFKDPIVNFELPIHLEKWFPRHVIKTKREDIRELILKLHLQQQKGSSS

[8] = target: T4, Sentrin-specific protease 6 (Homo sapiens, UniProt Q9GZR1); assay type: functional;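 further: Luminescence-based dose-response confirmatory assay of SENP6 inhibition, following up an ultra-high-throughput screen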
T4 sequence (Q9GZR1 whole entry): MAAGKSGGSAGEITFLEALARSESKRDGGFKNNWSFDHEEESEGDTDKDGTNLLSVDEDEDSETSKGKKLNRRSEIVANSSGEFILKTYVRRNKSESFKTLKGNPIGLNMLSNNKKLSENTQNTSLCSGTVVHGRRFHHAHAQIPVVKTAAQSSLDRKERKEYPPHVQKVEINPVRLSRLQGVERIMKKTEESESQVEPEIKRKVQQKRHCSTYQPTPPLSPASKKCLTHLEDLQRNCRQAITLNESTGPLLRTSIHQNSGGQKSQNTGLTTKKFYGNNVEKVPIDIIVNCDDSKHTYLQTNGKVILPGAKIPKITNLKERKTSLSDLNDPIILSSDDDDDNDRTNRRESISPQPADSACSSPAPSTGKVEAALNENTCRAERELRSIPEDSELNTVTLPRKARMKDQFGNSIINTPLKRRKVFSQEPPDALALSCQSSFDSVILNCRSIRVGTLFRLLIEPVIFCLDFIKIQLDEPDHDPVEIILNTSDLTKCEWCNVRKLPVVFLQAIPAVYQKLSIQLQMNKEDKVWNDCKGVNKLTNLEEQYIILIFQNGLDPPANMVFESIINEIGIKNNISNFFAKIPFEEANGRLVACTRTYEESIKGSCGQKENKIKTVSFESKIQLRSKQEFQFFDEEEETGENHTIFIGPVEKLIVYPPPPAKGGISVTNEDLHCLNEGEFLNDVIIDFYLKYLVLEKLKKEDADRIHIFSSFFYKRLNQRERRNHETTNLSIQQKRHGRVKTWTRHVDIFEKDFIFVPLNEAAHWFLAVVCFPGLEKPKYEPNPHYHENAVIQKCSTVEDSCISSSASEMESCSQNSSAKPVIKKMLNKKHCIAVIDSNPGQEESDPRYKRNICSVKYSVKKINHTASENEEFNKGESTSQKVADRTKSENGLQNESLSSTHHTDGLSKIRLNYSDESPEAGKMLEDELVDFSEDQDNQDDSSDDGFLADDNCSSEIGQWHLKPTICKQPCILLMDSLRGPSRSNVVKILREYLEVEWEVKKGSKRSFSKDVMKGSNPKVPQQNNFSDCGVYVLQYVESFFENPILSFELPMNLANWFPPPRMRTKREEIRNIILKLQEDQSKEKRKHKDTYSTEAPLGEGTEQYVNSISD

Escherichia coli = experiment: microbe, parasite or virus in culture
Vero = experiment: cells; assay type: functional; details: Chlorocebus sabaeus
[9] = Luminescence Cell-Based Dose Confirmation HTS to Identify Activators of 5'UTR Stem-Loop Driven Alpha-Synuclein mRNA Translation in H4 Neuroglioblastoma Cells. [Related pubchem assays: 1829 (Project Summary), 1814 (Primary HTS)]; assay type: functional
Cytochrome P450 2C9 [10] = target: T5, Cytochrome P450 2C9 (Homo sapiens, UniProt P11712)
[11] = Luminescence Cell-Based Dose Response HTS to Identify Activators of Luciferase Translation or Activity in H4 […] Cells. [Related pubchem assays: 1829 (Project Summary), 1814 (Primary HTS)]; assay type: functional
H4 = experiment: Luminescence Cell-Based Dose Response HTS to Identify Activators of 5'UTR Stem-Loop Driven Prion Protein mRNA Translation in H4 Neuroglioblastoma Cells. [Related pubchem assays: 1829 (Project Summary), 1814 (Primary HTS)]; assay type: functional; details: Homo sapiens
Cytochrome P450 3A4 = Cytochrome P450 3A4 (Homo sapiens, UniProt P08684);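 further: CYP3A4 tested as one member of a cytochrome P450 panel screen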
Cytochrome P450 2D6 = Cytochrome P450 2D6 (Homo sapiens, UniProt P10635);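 further: CYP2D6 member of a cytochrome P450 panel assay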
Cytochrome P450 2C9 [12] = target: T5, Cytochrome P450 2C9; remark: listed apart in the source
Large T antigen = Large T antigen (Simian virus 40, UniProt P03070); assay type: functional, Betapolyomavirus macacae;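 further: Confirmatory-stage PubChem screen for compounds that inhibit SV40 T antigen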
Large T antigen, sequence (P03070 whole entry): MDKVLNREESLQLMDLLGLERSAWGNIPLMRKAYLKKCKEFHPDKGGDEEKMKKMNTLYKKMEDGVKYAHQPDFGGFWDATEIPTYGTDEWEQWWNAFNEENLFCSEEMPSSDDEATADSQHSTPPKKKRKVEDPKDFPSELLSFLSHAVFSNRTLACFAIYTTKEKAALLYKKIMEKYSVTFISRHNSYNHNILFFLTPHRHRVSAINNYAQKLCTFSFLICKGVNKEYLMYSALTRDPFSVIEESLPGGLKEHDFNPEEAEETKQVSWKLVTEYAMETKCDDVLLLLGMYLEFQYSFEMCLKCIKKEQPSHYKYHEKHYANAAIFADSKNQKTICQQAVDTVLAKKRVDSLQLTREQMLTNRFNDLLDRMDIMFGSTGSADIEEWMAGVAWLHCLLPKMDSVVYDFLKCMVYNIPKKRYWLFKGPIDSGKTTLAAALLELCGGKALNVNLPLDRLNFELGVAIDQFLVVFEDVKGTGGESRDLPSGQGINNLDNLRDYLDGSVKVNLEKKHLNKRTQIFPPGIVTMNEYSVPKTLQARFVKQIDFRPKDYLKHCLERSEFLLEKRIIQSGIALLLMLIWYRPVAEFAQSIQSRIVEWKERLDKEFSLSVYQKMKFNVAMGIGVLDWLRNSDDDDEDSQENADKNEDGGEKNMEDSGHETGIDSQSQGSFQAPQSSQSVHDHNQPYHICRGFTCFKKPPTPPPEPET

T5 sequence (P11712 whole entry): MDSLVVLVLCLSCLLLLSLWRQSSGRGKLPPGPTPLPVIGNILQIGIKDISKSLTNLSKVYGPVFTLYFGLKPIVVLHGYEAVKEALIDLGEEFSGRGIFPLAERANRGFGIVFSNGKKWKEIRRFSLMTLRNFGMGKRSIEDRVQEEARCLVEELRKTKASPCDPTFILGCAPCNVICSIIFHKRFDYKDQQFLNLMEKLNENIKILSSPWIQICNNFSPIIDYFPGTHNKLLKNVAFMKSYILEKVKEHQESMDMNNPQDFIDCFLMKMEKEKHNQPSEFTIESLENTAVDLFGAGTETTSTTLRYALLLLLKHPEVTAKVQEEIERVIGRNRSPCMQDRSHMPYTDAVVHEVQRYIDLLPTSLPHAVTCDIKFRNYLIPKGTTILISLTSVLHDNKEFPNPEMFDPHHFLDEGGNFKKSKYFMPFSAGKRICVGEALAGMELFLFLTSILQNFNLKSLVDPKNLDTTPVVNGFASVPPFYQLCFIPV
Cytochrome P450 3A4, sequence (P08684 whole entry): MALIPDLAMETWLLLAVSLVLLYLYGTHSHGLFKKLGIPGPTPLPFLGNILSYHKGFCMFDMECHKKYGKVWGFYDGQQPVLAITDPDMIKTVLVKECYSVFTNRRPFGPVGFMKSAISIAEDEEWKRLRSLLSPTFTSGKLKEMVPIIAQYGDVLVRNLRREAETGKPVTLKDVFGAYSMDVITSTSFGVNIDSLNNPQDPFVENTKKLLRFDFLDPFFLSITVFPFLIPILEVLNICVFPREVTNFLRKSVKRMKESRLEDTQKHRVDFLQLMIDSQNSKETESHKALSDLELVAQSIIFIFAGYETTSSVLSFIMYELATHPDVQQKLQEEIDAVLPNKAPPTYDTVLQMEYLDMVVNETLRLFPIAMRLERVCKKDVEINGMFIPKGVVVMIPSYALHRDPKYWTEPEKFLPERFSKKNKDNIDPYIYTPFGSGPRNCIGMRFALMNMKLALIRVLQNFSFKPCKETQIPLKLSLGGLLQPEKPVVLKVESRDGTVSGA
Cytochrome P450 2D6, sequence (P10635 whole entry): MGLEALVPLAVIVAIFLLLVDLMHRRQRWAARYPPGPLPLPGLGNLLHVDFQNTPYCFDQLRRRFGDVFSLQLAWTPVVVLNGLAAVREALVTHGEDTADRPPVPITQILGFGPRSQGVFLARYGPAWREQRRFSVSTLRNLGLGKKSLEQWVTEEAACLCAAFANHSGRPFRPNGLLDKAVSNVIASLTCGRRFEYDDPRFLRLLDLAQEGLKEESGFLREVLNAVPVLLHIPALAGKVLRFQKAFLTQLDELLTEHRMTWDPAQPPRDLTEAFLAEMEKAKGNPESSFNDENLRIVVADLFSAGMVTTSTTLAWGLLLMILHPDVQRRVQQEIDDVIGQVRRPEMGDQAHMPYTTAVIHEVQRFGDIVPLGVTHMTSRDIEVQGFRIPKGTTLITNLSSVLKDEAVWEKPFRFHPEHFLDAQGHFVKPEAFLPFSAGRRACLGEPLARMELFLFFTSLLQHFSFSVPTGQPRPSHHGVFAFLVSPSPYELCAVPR

| Compound | IC50 [6] | IC50 (Caspase-3) | IC50 [7] | IC50 [8] | AC50 (Escherichia coli) | also measured |
| --- | --- | --- | --- | --- | --- | --- |
| COCCCNC(=O)Cc1c(C)c2c(cc(C)c3c(C(C)(C)C)coc32)oc1=O |  |  |  |  |  | EC50 (BJ [1]): 8.02 µM (inconclusive); EC50 (BJ [2]): 0.473 µM (active); EC50 [3]: 10.6 µM (inconclusive); EC50 (BJ [4]): 19.3 µM (inconclusive); EC50 (BJ [5]): 4.18 µM (active) |
| C/C(=N/OC(=O)c1ccccc1Br)c1ccc(C)cc1 | 46.9 µM (active) | 31.3 µM (active) | 7.72 µM (active) | 28.1 µM (active) |  |  |
| CCC(C)n1nccc1NC(=O)C(C)Cl (centres undefined) |  |  |  |  | 31.4 µM (active) |  |
| Cc1cc(C(=O)N2CCN(c3ccccc3)CC2)no1 |  |  |  |  | 28.2 µM (active) |  |
| COc1ccc(NC(=O)C2CCN(Cc3cnn(-c4ccccc4)c3-n3cccc3)CC2)cc1OC |  |  |  |  | > 150 µM (inactive) |  |
| COc1ccc(Nc2nc(-c3ccccc3)nc3ccccc23)cc1S(=O)(=O)N1CCOCC1 |  |  |  |  |  | CC50 (Vero): > 25 µM (active) |
| Clc1ccc(-c2cc3ccccc3[nH]2)cc1 | 19.9 µM (active) | 16 µM (active) | 8.48 µM (active) | 18 µM (active) |  | EC50 [9]: 3.77 µM (active); AC50 (Cytochrome P450 2C9 [10]): 11.2 µM (inconclusive); EC50 [11]: 106 µM (active); EC50 (H4): 9.01 µM (active) |
| CN(C)C(=O)N1CCCC(C(=O)NCCc2ccccc2)C1 (centres undefined) |  |  |  |  |  | AC50 (Cytochrome P450 3A4): 39.8 µM (inconclusive); AC50 (Cytochrome P450 2D6): 10 µM (inconclusive); AC50 (Cytochrome P450 2C9 [12]): inconclusive |
| Cc1cc(C)c2c(CCl)cc(=O)oc2c1 |  |  |  |  |  | IC50 (Large T antigen): 9.73 µM (active); EC50 (BJ [1]): 0.784 µM (active); EC50 (BJ [2]): 0.296 µM (active); EC50 [3]: 0.762 µM (active); EC50 (BJ [4]): 0.676 µM (active); EC50 (BJ [5]): 0.584 µM (inconclusive) |
| Fc1ccc(NC(=S)N2N=CCC2c2ccccc2)cc1 (centres undefined) | 38.3 µM (active) | 15.9 µM (active) | 11.8 µM (active) | 39.3 µM (active) |  |  |
| Cc1cc(-n2c(C)cc(C(=O)COc3ccc(F)c(F)c3)c2C)no1 | 20.4 µM (active) | 21 µM (active) | 8.26 µM (active) | 22.7 µM (active) |  |  |
| CCn1cc(C(=O)NCCCO)c(=O)c2cc(F)c(N3CCN(C)CC3)cc21 |  |  |  |  | 2.5 µM (active) |  |
